Assay results as given in ChEMBL document CHEMBL3430912, “GSK Tres Cantos Anti-Kinetoplastid Screening (TCAKS) Data”.
pIC50: −log10 of the molar value.

What was measured:
[1] = target: Sterol 14-alpha demethylase (Trypanosoma cruzi (strain CL Brener), UniProt Q7Z1V1); test: GSK_TCAKS: pIC50 CYP51 from Trypanosoma cruzi.; format: functional
[2] = system: Trypanosoma brucei brucei; test: GSK_TCAKS: pIC50 Trypanosoma brucei viability assay using luminiscence. Assay plates (1536-well) were prepared. T. brucei cultures were harvested and counted in a CASY cell counter. A parasite suspension was prepared at a final concentration of 5 * 10^4 cells/mL in complete HMI9 medium and 6uL was dispensed to all wells containing compounds using a Multidrop Combi dispenser. 6uL of HMI9 media with 0.4% DMSO were dispensed to control columns. Plates were incubated for 24 h at 37C, 5% CO2 then tempered for 10 min at room temperature. ATP content was quantified by adding 4 uL of CellTiter-Glo Reagent (Promega) according to the manufacturer's instructions. Luminescence was measured using a ViewLux.; format: functional, organism-based; conditions: Lister 427, CASY
[3] = system: Leishmania donovani; test: GSK_TCAKS: pIC50 Leishmania donovani viability assay using fluorescence intensity. Assay plates (1536-well) were prepared by adding 30nL per well of compound. For single shot assay, the final compound concentration was 5uM. […] Briefly, eGFP LdBOB axenic amastigotes were harvested, fixed and counted in a CASY cell counter (Roche-Applied Science). A final concentration of 1.5 * 10^5 cells per well were prepared in amastigote media containing 500 U/mL penicillin/streptomycin (Invitrogen) and 6uL was dispensed to each experimental well using a Multidrop Combi dispenser (Thermo Scientific). 6uL of assay media was dispensed to control columns used as reference for 100% compound response. Following incubation for 72 h at 37C, 5% CO2, 2 uL of resazurin was added to each well at a final concentration of 0.5 mM in phosphate buffered saline (PBS) with IGEPAL (Sigma-Aldrich), 0.05% (v/v).; format: functional, organism-based
[4] = system: Trypanosoma cruzi; test: (§1) GSK_TCAKS: pIC50 Trypanosoma cruzi Imaging: Infected Cells. […] Cells were then washed once with PBS before infection. T. cruzi trypomastigotes, collected at days 5 to 8 after infection from LLC-MK2 parasite infected cultures, were allowed to swim out for 4h at 37C from a centrifuged pellet (2,500 rpm/10 min/room temperature). Trypomastigotes were then collected and counted in a CASY Cell Counter. Trypomastigotes, in supplemented DMEM, were added to H9c2 cultures in a multiplicity of infection of 1 and incubated for 18 h. Cells were washed once with PBS before incubation of the infected H9c2 monolayer with trypsin (Life-Technologies) to detach cells from the flask. Cells were counted in a CASY Cell Counter using a 150 um capillary and their density set at 5 * 10^4 cells per mL in supplemented assay DMEM. Infected H9c2 were dispensed into 384-well poly-lysine coated assay plates at 50uL per well using a Multidrop Combi dispenser. After seeding them, the plates were incubated at 37C, 5% CO2 for 72h. Cultures were then fixed and stained by addition of 50 uL of a solution containing 8% formaldehyde and 4 uM DRAQ5 DNA dye (BioStatus, UK) per well. […] Five images were collected per well for reliable statistical analysis. Automated image analysis was performed with a script developed on Acapella High Content Imaging and Analysis Software (PerkinElmer). Output: percentage of infected cells per well as a second infection marker.; format: functional, organism-based, Rattus norvegicus; conditions: H9c2, 4 h
[5] = system: Trypanosoma cruzi; test: GSK_TCAKS: pIC50 Trypanosoma cruzi Imaging: Amastigotes/Cell. […] Cells were then washed once with PBS before infection. T. cruzi trypomastigotes, collected at days 5 to 8 after infection from LLC-MK2 parasite infected cultures, were allowed to swim out for 4h at 37C from a centrifuged pellet (2,500 rpm/10 min/room temperature). Trypomastigotes were then collected and counted in a CASY Cell Counter. Trypomastigotes, in supplemented DMEM, were added to H9c2 cultures in a multiplicity of infection of 1 and incubated for 18 h. Cells were washed once with PBS before incubation of the infected H9c2 monolayer with trypsin (Life-Technologies) to detach cells from the flask. Cells were counted in a CASY Cell Counter using a 150 um capillary and their density set at 5 * 10^4 cells per mL in supplemented assay DMEM. Infected H9c2 were dispensed into 384-well poly-lysine coated assay plates at 50uL per well using a Multidrop Combi dispenser. After seeding them, the plates were incubated at 37C, 5% CO2 for 72h. Cultures were then fixed and stained by addition of 50 uL of a solution containing 8% formaldehyde and 4 uM DRAQ5 DNA dye (BioStatus, UK) per well. […] Five images were collected per well for reliable statistical analysis. Automated image analysis was performed with a script developed on Acapella High Content Imaging and Analysis Software (PerkinElmer). Output: number of amastigotes per cell as infection level measurement.; format: functional, organism-based, Rattus norvegicus; conditions: H9c2, 4 h
[6] = system: Leishmania donovani; test: GSK_TCAKS: pIC50 Leishmania donovani Imaging: THP-1 Host Macrophages. Assay plates (384-well) were prepared by adding 250nL of compound to each well. For single shot assay, the final compound concentration was 5 uM. […] Automated image analysis was performed with a script developed on Acapella High Content Imaging and Analysis Software (PerkinElmer). Output: THP-1 cell count were reported for each well.; format: functional, organism-based, Homo sapiens
[7] = system: Trypanosoma cruzi; test: as §1, with “H2C9” for “Trypanosoma cruzi”, “H9c2 Host Cardiomyocytes.” for “Infected Cells.”, “Number” for “percentage”, “H9c2 Host Cardiomyocytes nuclei to determine drug-related cytotoxicity.” for “infected cells per well as a second infection marker.”; format: functional, organism-based, Rattus norvegicus; conditions: H9c2, 4 h
[8] = GSK_TCAKS: pIC50 HepG2 human cell line viability assay using luminiscence. […] Seeding density was checked to ensure that new mono-layers were not more than 50% confluent at the time of harvesting. Cell suspension was added to 500 mL of the same medium at a final density of 1.2 * 10^5 cells/mL. This cell suspension was dispensed (25 uL, 3000 cells per well) into 384-well clear-bottom plates using a Multidrop Combi dispenser. Prior to addition of the cell suspension, the screening compounds (250 nL) were pre-dispensed into the plates with an Echo liquid handler. Plates were incubated for 48 h at 37C, 5% CO2. After incubation, plates equilibrated at room temperature for 30 min before proceeding to develop the luminescent signal. The signal developer, CellTiter-Glo Reagent, was allowed to equilibrate at room temperature for 30 min and added to the plates (25uL per well) using a Multidrop Combi dispenser. Plates were left for 10 min at room temperature for stabilization and then read using a ViewLux.; format: toxicity, cell-based
[9] = system: Leishmania donovani; test: GSK_TCAKS: pIC50 Leishmania donovani Imaging: Infected Macrophages. Assay plates (384-well) were prepared by adding 250nL of compound to each well. For single shot assay, the final compound concentration was 5 uM. […] Automated image analysis was performed with a script developed on Acapella High Content Imaging and Analysis Software (PerkinElmer). Output: Percent of infected macrophage cells were reported for each well.; format: functional, organism-based, Homo sapiens; conditions: THP-1
[10] = system: Trypanosoma brucei brucei; test: GSK_TCAKS: pIC50 Trypanosoma brucei viability assay using fluorescence intensity. Assay plates (1536-well) were prepared by dispensing 25nL of compound solution per well using an Echo acoustic dispenser (Labcyte).; format: functional, organism-based; conditions: Lister 427, 2 h
[11] = system: Trypanosoma cruzi; test: GSK_TCAKS: pIC50 Trypanosoma cruzi viability assay using beta-GAL activity. This assay was run at single shot at 5uM compound concentration per well. The biological reagents consisted of NIH-3T3 host cells and trypomastigotes parasitic cells; both cell types were set to a 3.3 * 10^5 cells/mL dilution in assay DMEM by means of a CASY cell counter device using a 60um capillary. 6 uL of the mixture were dispensed per well (about 1 * 10^3 host-cells and 1 * 10^3 parasites) with a Multidrop Combi dispenser. […] In all wells, the percentage of DMSO never exceeded 0.5%. Plates incubated for four days at 37C, 5% CO2. The substrate used for the assay fluorescence intensity (FLINT) readout was resorufin-beta-D-galactopiranoside (Sigma-Aldrich) at 5uM per well. It was diluted in PBS supplemented with the soft detergent Igepal (Fluka).; format: functional, organism-based, Mus musculus; conditions: Tulahuen, NIH3T3
[12] = system: Leishmania donovani; test: GSK_TCAKS: pIC50 Leishmania donovani Imaging: Amastigotes/Macrophages. Assay plates (384-well) were prepared by adding 250nL of compound to each well. For single shot assay, the final compound concentration was 5 uM. […] Automated image analysis was performed with a script developed on Acapella High Content Imaging and Analysis Software (PerkinElmer). Output: Average number of amastigotes per macrophage cell were reported for each well.; format: functional, organism-based, Homo sapiens; conditions: THP-1

Sterol 14-alpha demethylase, sequence (Q7Z1V1 whole entry): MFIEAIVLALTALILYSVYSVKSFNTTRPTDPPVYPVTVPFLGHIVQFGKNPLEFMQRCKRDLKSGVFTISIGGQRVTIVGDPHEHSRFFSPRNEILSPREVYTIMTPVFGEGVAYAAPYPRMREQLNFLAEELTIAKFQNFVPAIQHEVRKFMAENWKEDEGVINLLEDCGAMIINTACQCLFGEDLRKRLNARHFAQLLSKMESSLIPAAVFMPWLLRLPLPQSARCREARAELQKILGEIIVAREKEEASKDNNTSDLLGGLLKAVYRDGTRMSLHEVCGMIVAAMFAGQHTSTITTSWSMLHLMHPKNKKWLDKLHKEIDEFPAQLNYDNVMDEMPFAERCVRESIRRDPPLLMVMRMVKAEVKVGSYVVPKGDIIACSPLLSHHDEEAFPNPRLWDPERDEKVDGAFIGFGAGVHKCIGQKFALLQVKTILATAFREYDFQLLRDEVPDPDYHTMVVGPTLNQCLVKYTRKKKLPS

## O=C1NCCn2ccc(Nc3nc(N[C@H]4CC[C@H](O)CC4)ncc3Cl)c21
[1]
  pIC50: < 4.00
[2]
  pIC50: 6.20
[3]
  pIC50: 5.60
[4]
  pIC50: 4.70
[5]
  pIC50: 5.50
[6]
  pIC50: 6.40
[7]
  pIC50: 6.40
[8]
  IC50 at 48 h: > 100 µM
[9]
  pIC50: 6.00
[10]
  pIC50: 6.30
[11]
  pIC50: 5.20
[12]
  pIC50: 6.20

## N#Cc1cccc(CNc2ccc(-c3cnn(CC4CC4)c(=O)c3C#N)cc2)c1
[1]
  pIC50: 5.20
[2]
  pIC50: 4.90
[3]
  pIC50: 4.60
[4]
  pIC50: 5.10
[5]
  pIC50: 5.30
[6]
  pIC50: 5.20
[7]
  pIC50: < 4.30
[8]
  IC50 at 48 h: > 100 µM
[9]
  pIC50: 5.90
[10]
  pIC50: 5.00
[11]
  pIC50: 5.30
[12]
  pIC50: 6.60

## COc1cc(OC)cc(C(=O)N[C@@H](CC(C)C)C(=O)NC2(C#N)CC2)c1
[1]
  pIC50: < 4.00
[2]
  pIC50: 7.20
[3]
  pIC50: < 4.30
[4]
  pIC50: < 4.30
[5]
  pIC50: < 4.30
[6]
  pIC50: < 4.30
[7]
  pIC50: < 4.30
[8]
  IC50 at 48 h: > 100 µM
[9]
  pIC50: < 4.30
[10]
  pIC50: 6.30
[11]
  pIC50: < 4.30
[12]
  pIC50: < 4.30

## Cc1ccc(S(C)(=O)=O)cc1Nc1nccc(-c2sc(N)nc2-c2ccccc2)n1
[1]
  pIC50: < 4.00
[2]
  pIC50: 5.80
[3]
  pIC50: 5.50
[4]
  pIC50: 6.90
[5]
  pIC50: 7.10
[6]
  pIC50: 4.70
[7]
  pIC50: 5.30
[8]
  IC50 at 48 h: 31.6 µM
[9]
  pIC50: 5.30
[10]
  pIC50: 6.10
[11]
  pIC50: 6.90
[12]
  pIC50: 5.60

## CC(C)C[C@H](NC(=O)c1ccc(-c2ccccc2)o1)C(=O)NC1(C#N)CC1
[1]
  pIC50: < 4.00
[2]
  pIC50: 7.30
[3]
  pIC50: < 4.30
[4]
  pIC50: < 4.30
[5]
  pIC50: 4.60
[6]
  pIC50: < 4.30
[7]
  pIC50: < 4.30
[8]
  IC50 at 48 h: > 100 µM
[9]
  pIC50: < 4.30
[10]
  pIC50: 7.00
[11]
  pIC50: 4.50
[12]
  pIC50: 4.80

## CCOC(=O)c1noc(N)c1-c1ccccc1
[1]
  pIC50: < 4.00
[2]
  pIC50: 6.20
[3]
  pIC50: < 4.30
[4]
  pIC50: < 4.30
[5]
  pIC50: < 4.30
[6]
  pIC50: < 4.30
[7]
  pIC50: < 4.30
[8]
  IC50 at 48 h: > 100 µM
[9]
  pIC50: < 4.30
[10]
  pIC50: 6.20
[11]
  pIC50: < 4.30
[12]
  pIC50: < 4.30

## CC(C)C[C@H](NC(=O)c1csc(-c2cccs2)n1)C(=O)NC1(C#N)CC1
[1]
  pIC50: < 4.00
[2]
  pIC50: 7.00
[3]
  pIC50: 5.30
[4]
  pIC50: < 4.30
[5]
  pIC50: 4.70
[6]
  pIC50: < 4.30
[7]
  pIC50: < 4.30
[8]
  IC50 at 48 h: > 100 µM
[9]
  pIC50: < 4.30
[10]
  pIC50: 6.80
[11]
  pIC50: 4.60
[12]
  pIC50: < 4.30

## CN(C)S(=O)(=O)c1ccc(-c2cnc(N)c(-c3nc4ccc(F)cc4[nH]3)c2)cc1
[1]
  pIC50: 4.40
[2]
  pIC50: 6.00
[3]
  pIC50: 5.60
[4]
  pIC50: < 4.30
[5]
  pIC50: < 4.30
[6]
  pIC50: 5.40
[7]
  pIC50: 5.90
[8]
  IC50 at 48 h: > 100 µM
[9]
  pIC50: 5.80
[10]
  pIC50: 6.40
[11]
  pIC50: 5.90
[12]
  pIC50: 6.20

## Nc1cc(-c2ccc3ncnc(N4CCOCC4)c3c2)cnc1N
[1]
  pIC50: 4.10
[2]
  pIC50: 6.80
[3]
  pIC50: 5.40
[4]
  pIC50: 5.30
[5]
  pIC50: 5.80
[6]
  pIC50: < 4.30
[7]
  pIC50: 5.50
[8]
  IC50 at 48 h: > 100 µM
[9]
  pIC50: 5.00
[10]
  pIC50: 7.30
[11]
  pIC50: 5.80
[12]
  pIC50: 5.90

## NC(=O)c1cc(NC(=O)c2ccccc2COc2ccccc2)ccc1Cl
[1]
  pIC50: 4.10
[2]
  pIC50: < 4.40
[3]
  pIC50: 5.10
[4]
  pIC50: 4.50
[5]
  pIC50: 4.60
[6]
  pIC50: 4.80
[7]
  pIC50: < 4.30
[8]
  IC50 at 48 h: > 100 µM
[9]
  pIC50: 5.50
[10]
  pIC50: 4.80
[11]
  pIC50: 4.40
[12]
  pIC50: 5.80

## CC(=O)Nc1cccc(Nc2ncnc3[nH]cnc23)c1
[1]
  pIC50: < 4.00
[2]
  pIC50: 6.40
[3]
  pIC50: < 4.30
[4]
  pIC50: 4.40
[5]
  pIC50: 4.60
[6]
  pIC50: 5.00
[7]
  pIC50: < 4.30
[8]
  IC50 at 48 h: > 100 µM
[9]
  pIC50: < 4.30
[10]
  pIC50: 6.90
[11]
  pIC50: < 4.30
[12]
  pIC50: 4.40
